Read-outs that look alike come from different tables or passages of the source.

The test system of test [1] is skeletal muscle. The experiment in a line: Human clinical trial with statins: skeletal muscle cholesterol and ubiquinone (Paiva et al.). In kind it is in vivo.
For test [2], the system named is liver cell. Further details: unit not given here. Particulars: cited from earlier work.

As for `CCC(C)(C)C(=O)O[C@H]1C[C@@H](C)C=C2C=C[C@H](C)[C@H](CC[C@@H]3C[C@@H](O)CC(=O)O3)[C@H]21` [simvastatin], in test [1] (drop), the “Ubiquinone, Percent from placebo” value is on record as 134% drop. In addition, the “Cholesterol, Percent from placebo” value in test [1] (rise) is on record as 139% rise.

As to `CC(C)c1c(C(=O)Nc2ccccc2)c(-c2ccccc2)c(-c2ccc(F)cc2)n1CC[C@@H](O)C[C@@H](O)CC(=O)O` [atorvastatin], the Cholesterol is 15.52 in test [2] (DOSE 0.01), 14.27 in test [2] (DOSE 3), 13.71 in test [2] (DOSE 10) and 13.66 in test [2] (DOSE 20).

Values taken from patent publication US20130191098A1, “METHODS AND SYSTEMS FOR SIMULATIONS OF COMPLEX BIOLOGICAL NETWORKS USING GENE EXPRESSION INDEXING IN COMPUTATIONAL MODELS” (BOARD OF REGENTS OF THE UNIVERSITY OF TEXAS SYSTEM, priority 2010, published 2013).
